Test results published in paper PMC11651915, “Small molecule protein assembly modulators with pan-cancer therapeutic efficacy” (Open Biology, 2024).
Structures can show the parent of a compound that is named as a salt.

Experiments:
[1] = mouse MTD; cited from earlier work
[2] = system: A549 human lung cancer xenograft; test: A549 xenograft studies; conditions: for tumour growth inhibition (TGI): A549 xenograft, Gemcitabine 100 mg kg^−1 twice weekly
A549 = test: In-house cancer cell viability screen (AlamarBlue); type: cell-based, human; conditions: for change of potency when compound is added at the time of plating rather than 24 h later: A549; for IC50: Homo sapiens, AlamarBlue
NCI-60 cancer cell lines = conditions: for anti-cancer activity in NCI-60 single-dose testing: single dose 2.5 µM
[3] = system: HT-29 colorectal cancer xenograft; test: HT-29 xenograft study; type: in vivo, mouse; conditions: 17 days, PAV-951 3 mg kg^−1 IV, Irinotecan 60 mg kg^−1 IP
Experimental: In the second animal efficacy study, human HT-29 colorectal adenocarcinoma cells were grafted subcutaneously onto mice. After tumour establishment, the animals received treatment with vehicle, 3 mg kg^−1 PAV-951 or 60 mg kg^−1 of a positive control drug Irinotecan. […]. Survival was not assessed as part of the study.
HT-29 cells growing in HBSS medium were suspended in Matrigel. 0.1 ml of the cell suspension containing 5 × 10^6 cells were injected subcutaneously into the left flank region of male, 6–8 week old SCID mice. After tumour establishment, animals were divided randomly into groups of six and treated daily by IV with vehicle daily for 17 days, 3 mg kg^−1 PAV-951 three times per week for 17 days, or treated by IP with 60 mg kg^−1 Irinotecan every 4 days for 14 days. Tumour volume was calculated using the formula: (L × W2)/2 where L is the largest diameter and W is the smallest diameter of the tumour. Statistical analysis was performed using GraphPad Prism (Ver. 5.03). Statistical analysis of tumour growth inhibition between the Control and Treated groups was performed by using ne-way ANOVA followed by Dunnett’s test.

LNCaP C-33 cells = test: Cell growth recovery assay; type: cell-based, human; conditions: PAV-617 0.3 µM 24 h, PAV-951 0.4 µM 6 h, followed
Hennes 20 cells [4] = test: High density/low density 'arrest of proliferation' assay; type: cell-based, Chinese hamster; conditions: Hennes 20, 72 h, AlamarBlue
Hennes 20 cells [5] = test: Cell growth recovery assay; type: cell-based, Chinese hamster; conditions: PAV-617 0.3 µM 24 h, PAV-951 0.4 µM 6 h, followed to day 14
Experimental: To confirm that the inhibition observed in low-density Hennes 20 cells resulted from temporary arrest of proliferation and not cell death, compound was removed after a period of treatment and cell growth was measured over the subsequent two weeks for recovery potential. Once compound was removed, following a period of recovery, cell proliferation was restored over time for both chemotypes (see figure 1f,g). By day 11, cell density in compound-treated cells had caught up to that in the DMSO-treated cells (see figure 1f,g).
A 96-well plate was seeded with either Hennes 20 or LNCaP C-33 cells at 500 cells per well in 90 µl of minimum essential media and incubated at 37°C for 24 h. 0.5% DMSO was diluted in media and added to six control wells for each plate. PAV-617 was diluted in media and added to three wells at a concentration of 0.3 µM. PAV-951 was diluted in media and added to concentration of 0.4 µM. After 24 h of PAV-617 treatment or 6 h of PAV-951 treatment, the medium containing compound was removed and replaced with fresh media. After 72 h (day 5), plates were assayed with AlamarBlue and fluorescence was read at 530/590. The medium containing AlamarBlue was removed and replaced with fresh media. After another 72 h (day 8) plates were assayed with AlamarBlue and fluorescence again, then medium containing AlamarBlue was removed and replaced with fresh media. […]

[6] = system: BB1 patient biopsy derived cell line (benign adenoma); test: BB1 and BB5 adenoma versus carcinoma screen (confocal imaging); type: cell-based, human; conditions: 60 h, percent ChromaLive negative
Mpox Zaire 79 = type: cell-based, Mpox virus; conditions: read-out: EC50 against Mpox
A549 and MRC-5 cells = test: Toxicity to A549 cancer line versus non-cancer MRC-5 cells; type: cell-based
[7] = Mouse pharmacokinetics (plasma and lung); type: in vivo; conditions: PAV-621 5 mg kg^−1 IP versus PAV-951 2.5 mg kg^−1 IV
Experimental: Pharmacokinetic (PK) studies were conducted in male Sprague Dawley Rats aged 8–10 weeks or male CD1 mice aged 5–6 weeks or Balb/c nude mice. Treatment groups were made up of four animals each and dosing regimens for disclosed data is provided. Animals were sacrificed at the end of the study period using an overdose of CO2. PK studies were conducted at Vipragen Biosciences Private Limited or Pharmaron in accordance with the CPCSEA guidelines and ARRIVE guidelines.
CD1 or Balb/c nude mice aged 6–8 weeks were randomly divided into treatment groups with three animals per group. Animals in each treatment group were weighed and received either one […] intravenous dose of either vehicle (10% DMSO, 45% propylene glycol, 45% sterile water) or 2.5 mg kg^−1 PAV-951, or one intraperitoneal dose of either vehicle ([…] 10% DMSO, 45% propylene glycol, 45% sterile water) or 5 mg kg^−1 PAV-621. Animals were sacrificed after 1 h, 4 h, 8 h, 24 h post-dosing. Concentration of drug in the plasma and lung over time was measured using a Waters Acquity TQD LCMS/MS. Maximum concentration (Cmax) was determined to be the maximum concentration detected in a dataset. Half life, area under the curve and mean residence time were calculated with Phoenix WinNolin software.

in vivo = conditions: female, Balb/c, mouse, ip
[8] = PAV-617 study, 28 days, IP, PAV-617 10 mg kg^−1 once daily

Q: Which MTD [1] does the source give for cisplatin here?
A: 6 mg/kg

Q: For `Nc1ccn([C@@H]2O[C@H](CO)[C@@H](O)C2(F)F)c(=O)n1` [Gemcitabine, Gemcitabine hydrochloride, reference compound], which “tumour growth inhibition (TGI)” value [2, 8] is on record?
A: 64%

Q: What about the “tumour growth inhibition (TGI)” value ([2]; PAV-951 study, 14 days, IV, PAV-951 1.5 mg kg^−1 once daily) of the same molecule?
A: 84%

Q: And the “change of potency when compound is added at the time of plating rather than 24 h later” value (A549)?
A: did not significantly affect

Q: What about the IC50 (A549; A549 (treatment 0 h after plating)) of the same molecule?
A: 3.01 µM

Q: What about the IC50 (A549; A549 (treatment 24 h after plating), 72 h) of the same molecule?
A: 3.92 µM

Q: With `c1ccc(CCNc2ncnc3cc(N4CCN(c5ccc6c(NCCc7ccccc7)ncnc6c5)CC4)ccc23)cc1` [PAV-436] as the molecule, how does the “anti-cancer activity in NCI-60 single-dose testing” value (NCI-60 cancer cell lines) read?
A: lost all anti-cancer activity on all cell lines examined

Q: With `CCc1c2c(nc3ccc(OC(=O)N4CCC(N5CCCCC5)CC4)cc13)-c1cc3c(c(=O)n1C2)COC(=O)[C@]3(O)CC` [Irinotecan, reference compound] as the molecule, how does the “tumour growth inhibition (TGI)” value [3] read?
A: 108%

Q: With “3,7-Di(pyrrolidin-1-yl) phenothiazinium iodide [PAV-617]” as the molecule, how does the “dose inhibiting growth relative to vehicle-treated cells (GI50)” value (NCI-60 cancer cell lines; for more than 40 cell lines) read?
A: 2–3 digit nanomolar range

Q: And the CC50 (NCI-60 cancer cell lines; read-out: dose required to decrease cell viability below that at the time compound was added (LC50), for at least 40 cell lines)?
A: > 100 µM

Q: And the “recovery of cell growth after removal of compound” value (LNCaP C-33 cells)?
A: did not recover

Q: What about the “inhibitory effect at low (500 cells per well) versus high (15 000 cells per well) density” value (Hennes 20 cells [4]) of the same molecule?
A: difference between their inhibitory effects on low and high density-plated Hennes 20 cells

Q: What about the “recovery of cell growth after removal of compound” value (Hennes 20 cells [5]) of the same molecule?
A: recovered over time

Q: What about the “tumour growth inhibition (TGI)” value [2, 8] of the same molecule?
A: 63%

Q: And the “adverse effects at the doses of the xenograft studies” value ([2]; clinical signs, weight loss, histopathological changes, blood cell count)?
A: without any serious adverse effects

Q: And the IC50 [6]?
A: 0.81 µM

Q: What about the EC50 (Mpox Zaire 79) of the same molecule?
A: 0.201 µM

Q: Which MTD [1] does the source give for `CCC1=C[C@@H]2CN(C1)Cc1c([nH]c3ccccc13)[C@@](C(=O)OC)(c1cc3c(cc1OC)N(C)[C@H]1[C@@](O)(C(=O)OC)[C@H](OC(C)=O)[C@]4(CC)C=CCN5CC[C@]31[C@@H]54)C2` [Vinorelbine] here?
A: 10 mg/kg

Q: Which “anti-cancer activity in NCI-60 single-dose testing” value (NCI-60 cancer cell lines) does the source give for `CCCCNc1ncnc2cc(N3CCN(c4ccc5c(NCCCC)ncnc5c4)CC3)ccc12` [PAV-621] here?
A: improvements relative to PAV-951

Q: And the “toxicity to A549 cancer line compared with non-cancer MRC-5 cells” value (A549 and MRC-5 cells)?
A: selectively toxic to the A549 cancer line

Q: What about the “exposure in the lung” value [7] of the same molecule?
A: comparable exposure with PAV-951

Q: What about the “change of potency when compound is added at the time of plating rather than 24 h later” value (A549) of the same molecule?
A: increased potency

Q: What about the MTD at 72 h (in vivo) of the same molecule?
A: 7.5 mg/kg
